Assay results from patent publication US12577206B2 (BRISTOL-MYERS SQUIBB COMPANY, priority 2020, dated 2026).

Experiments:
human FPR1 = target: T1, human FPR1 (Homo sapiens, UniProt P21462); assay: FPR1 cyclic adenosine monophosphate (cAMP) assay; type: cell-based; details: CHO cells overexpressing human FPR1; forskolin 10 μM; inhibition of cAMP production; HTRF; read-out: hFPR1 cAMP2 EC50
T1 sequence (P21462 1-350): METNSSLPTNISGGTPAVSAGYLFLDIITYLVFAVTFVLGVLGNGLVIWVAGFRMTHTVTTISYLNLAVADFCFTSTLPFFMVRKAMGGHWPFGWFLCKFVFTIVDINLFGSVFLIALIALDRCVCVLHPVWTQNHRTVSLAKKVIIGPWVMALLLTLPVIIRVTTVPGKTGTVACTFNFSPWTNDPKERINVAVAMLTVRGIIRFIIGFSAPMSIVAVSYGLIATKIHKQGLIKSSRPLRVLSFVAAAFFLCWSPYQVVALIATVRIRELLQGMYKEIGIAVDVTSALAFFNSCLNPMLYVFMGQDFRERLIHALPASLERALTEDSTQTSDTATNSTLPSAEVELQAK
Excerpt: (§1) N-formyl peptide receptors (FPRs) are a family of chemo attractant receptors that facilitate leukocyte response during inflammation. FPRs belong to the seven-transmembrane G protein-coupled receptor superfamily and are linked to inhibitory G-proteins (Gi). Three family members (FPR1, FPR2 and FPR3) have been identified in humans and are predominantly found in myeloid cells with varied distribution and have also been reported in multiple organs and tissues. After agonist binding, the FPRs activate a multitude of physiological pathways, such as intra cellular signaling transduction, Ca^2+ mobilization and transcription. The family interacts with a diverse set of ligands that includes proteins, polypeptides and fatty acid metabolites which activate both pro-inflammatory and pro-resolution downstream responses. FPR2 and FPR1 Cyclic Adenosine Monophosphate (cAMP) Assays were used to measure the in vitro activity of the compounds disclosed in this application.
(§2) FPR2 and FPR1 Cyclic Adenosine Monophosphate (cAMP) Assays. A mixture of forskolin (5 μM final for FPR2 or 10 μM final for FPR1) and IBMX (200 μM final) were added to 384-well Proxiplates (Perkin-Elmer) pre-dotted with test compounds in DMSO (1% final) at final concentrations in the range of 0.020 nM to 100 μM. Chinese Hamster Ovary cells (CHO) overexpressing human FPR1 or human FPR2 receptors were cultured in F-12 (Ham's) medium supplemented with 10% qualified FBS, 250 μg/mL zeocin and 300 μg/mL hygromycin (Life Technologies). Reactions were initiated by adding 2,000 human FPR2 cells per well or 4,000 human FPR1 cells per well in Dulbecco's PBS (with calcium and magnesium) (Life Technologies) supplemented with 0.1% BSA (Perkin-Elmer). The reaction mixtures were incubated for 30 min at rt. The level of intracellular cAMP was determined using the HTRF HiRange cAMP assay reagent kit (Cisbio) according to manufacturer's instruction. Solutions of cryptate conjugated anti-cAMP and d2 flurorophore-labeled cAMP were made in a supplied lysis buffer separately. Upon completion of the reaction, the cells were lysed with equal volume of the d2-cAMP solution and anti-cAMP solution. […] The potency and activity of a compound to inhibit cAMP production was then determined by fitting to a 4-parametric logistic equation from a plot of cAMP level versus compound concentrations.

human FPR2 = target: T2, human FPR2 (Homo sapiens, UniProt P25090); assay: FPR2 cyclic adenosine monophosphate (cAMP) assay; type: cell-based; details: CHO cells overexpressing human FPR2; forskolin 5 μM; inhibition of cAMP production; HTRF; read-out: hFPR2 cAMP2 EC50
T2 sequence (P25090 1-351): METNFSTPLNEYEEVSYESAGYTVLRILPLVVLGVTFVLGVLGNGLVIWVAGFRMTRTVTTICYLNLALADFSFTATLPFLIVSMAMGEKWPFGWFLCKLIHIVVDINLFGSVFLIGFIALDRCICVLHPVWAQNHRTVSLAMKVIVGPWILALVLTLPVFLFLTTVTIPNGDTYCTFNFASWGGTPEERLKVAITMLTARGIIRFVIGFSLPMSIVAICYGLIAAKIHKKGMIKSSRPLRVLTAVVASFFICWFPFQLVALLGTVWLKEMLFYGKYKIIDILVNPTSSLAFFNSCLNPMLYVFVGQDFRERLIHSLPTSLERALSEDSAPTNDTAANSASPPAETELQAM
Excerpt: as §1, §2

| EC50 (human FPR1) [µM] | EC50 (human FPR2) [µM] | SMILES |
| --- | --- | --- |
| 1.8 | 0.103 | Cn1c(-c2c(F)cc(C(F)(F)F)cc2F)c(NC(=O)c2ccc(OC(F)F)cc2)c(=O)n1-c1cccc(C(C)(C)O)n1 [Example 401, N-(5-(2,6-difluoro-4-(trifluoromethyl)phenyl)-2-(6-(2-hydroxypropan-2-yl)pyridin-2-yl)-1-methyl-3-oxo-2,3-dihydro-1H-pyrazol-4-yl)-4-(difluoromethoxy)benzamide] |
| 2.2 | 0.004 | COc1cc(F)c(-c2c(NC(=O)c3ccc(OC(F)F)cc3)c(=O)n(-c3cccc(Cl)c3F)n2C)c(F)c1 [Example 187, N-[2-(3-chloro-2-fluorophenyl)-5-(2,6-difluoro-4-methoxyphenyl)-1-methyl-3-oxo-2,3-dihydro-1H-pyrazol-4-yl]-4-(difluoromethoxy)benzamide] |
| 2.3 | 0.002 | COc1cc(OCC(O)C(F)(F)F)nc(-n2c(=O)c(NC(=O)c3ccc(OC(F)F)cc3)c(-c3c(F)cc(OC)cc3F)n2C)c1 (stereo not shown) [Example 380, N-(5-(2,6-Difluoro-4-methoxyphenyl)-2-(4-methoxy-6-(3,3,3-trifluoro-2-hydroxypropoxy)pyridin-2-yl)-1-methyl-3-oxo-2,3-dihydro-1H-pyrazol-4-yl)-4-(difluoromethoxy)benzamide] |
| 0.38 | 0.002 | COc1cc(F)c(-c2c(NC(=O)c3ccc(OC(F)F)cc3)c(=O)n(-c3nc(N4CCCC4=O)ccc3C(F)(F)F)n2C)c(F)c1 [Example 297, N-[5-(2,6-difluoro-4-methoxyphenyl)-1-methyl-3-oxo-2-[6-(2-oxopyrrolidin-1-yl)-3-(tifluoromethyl)pyridin-2-yl]-2,3-dihydro-1H-pyrazol-4-yl]-4-(difluoromethoxy)benzamide] |
| > 10 | 0.009 | COc1cc(F)c(-c2c(NC(=O)c3ccc(OC(F)F)cc3)c(=O)n(-c3nc(N[C@H](C)CO)ccc3C(F)(F)F)n2C)c(F)c1 [Example 236, N-[5-(2,6-difluoro-4-methoxyphenyl)-2-(6-{[(2R)-1-hydroxypropan-2-yl]amino}-3-(trifluoromethyl)pyridin-2-yl)-1-methyl-3-oxo-2,3-dihydro-1H-pyrazol-4-yl]-4-(difluoromethoxy)benzamide] |
| > 10 | 0.003 | COc1cc(F)c(-c2c(NC(=O)c3ccc(OC(F)F)cc3)c(=O)n(-c3nc(Cl)ccc3N(C)C)n2C)c(F)c1 [Example 209, N-{2-[6-chloro-3-(dimethylamino)pyridin-2-yl]-5-(2,6-difluoro-4-methoxyphenyl)-1-methyl-3-oxo-2,3-dihydro-1H-pyrazol-4-yl}-4-(difluoromethoxy)benzamide] |
| > 10 | 0.003 | COc1cc(F)c(-c2c(NC(=O)c3ccc(OC(F)F)cc3)c(=O)n(-c3nc(NCC(C)(C)O)ccc3C(F)(F)F)n2C)c(F)c1 [Example 271, N-[5-(2,6-difluoro-4-methoxyphenyl)-2-{6-[(2-hydroxy-2-methylpropyl)amino]-3-(trifluoromethyl)pyridin-2-yl}-1-methyl-3-oxo-2,3-dihydro-1H-pyrazol-4-yl]-4-(difluoromethoxy)benzamide] |
| > 10 | 0.004 | COc1cc(F)c(-c2c(NC(=O)c3ccc(OC(F)F)cc3)c(=O)n(-c3cc(C)cc(OC4CCOC4)n3)n2C)c(F)c1 (stereo not shown) [Example 360, N-(5-(2,6-Difluoro-4-methoxyphenyl)-1-methyl-2-(4-methyl-6-((tetrahydrofuran-3-yl)oxy)pyridin-2-yl)-3-oxo-2,3-dihydro-1H-pyrazol-4-yl)-4-(difluoromethoxy)benzamide] |
| > 10 | 0.005 | [2H]C([2H])([2H])Oc1cc(F)c(-c2c(NC(=O)c3ccc(OC(F)(F)F)cc3)c(=O)n(-c3cc(C(F)(F)F)ccn3)n2C)c(F)c1 [Example 402, N-(5-(2,6-difluoro-4-(methoxy-d3)phenyl)-1-methyl-3-oxo-2-(4-(trifluoromethyl)pyridin-2-yl)-2,3-dihydro-1H-pyrazol-4-yl)-4-(trifluoromethoxy)benzamide] |
| 0.39 | 0.004 | COc1cc(F)c(-c2c(NC(=O)c3ccc(OC(F)F)cc3)c(=O)n(-c3cc(OC4CCOC4)cc(C)n3)n2C)c(F)c1 (stereo not shown) [Example 321, N-(5-(2,6-Difluoro-4-methoxyphenyl)-1-methyl-2-(6-methyl-4-((tetrahydrofuran-3-yl)oxy)pyridin-2-yl)-3-oxo-2,3-dihydro-1H-pyrazol-4-yl)-4-(difluoromethoxy)benzamide] |

More lines, now with the values behind:

| SMILES | EC50 (human FPR1) [µM] | EC50 (human FPR2) [µM] |
| --- | --- | --- |
| COc1cc(F)c(-c2c(NC(=O)c3ccc(OC(F)F)cc3)c(=O)n(-c3cccc(N4CC[C@H](O)C4)n3)n2C)c(F)c1 [Example 102, N-[5-(2,6-difluoro-4-methoxyphenyl)-2-{6-[(3S)-3-hydroxypyrrolidin-1-yl]pyridin-2-yl}-1-methyl-3-oxo-2,3-dihydro-1H-pyrazol-4-yl]-4-(difluoromethoxy)benzamide] | 1 | 0.002 |
| COc1cc(F)c(-c2c(NC(=O)c3ccc(OC(F)(F)F)cc3)c(=O)n(-c3ccccc3)n2C)c(F)c1 [Example 4, N-[5-(2,6-difluoro-4-methoxyphenyl)-1-methyl-3-oxo-2-phenyl-2,3-dihydro-1H-pyrazol-4-yl]-4-(trifluoromethoxy)benzamide] | 1.3 | 0.008 |
| COc1cc(F)c(-c2c(NC(=O)c3ccc(OC(F)(F)F)cc3)c(=O)n(-c3cccc(C(F)(F)F)n3)n2C)c(F)c1 [Example 155, N-[5-(2,6-difluoro-4-methoxyphenyl)-1-methyl-3-oxo-2-[6-(trifluoromethyl)pyridin-2-yl]-2,3-dihydro-1H-pyrazol-4-yl]-4-(trifluoromethoxy)benzamide] | 2.2 | 0.009 |
| COc1cc(F)c(-c2c(NC(=O)c3ccc(OC(F)F)cc3)c(=O)n(-c3cncc(OC)n3)n2C)c(F)c1 [Example 71, N-[5-(2,6-difluoro-4-methoxyphenyl)-2-(6-methoxypyrazin-2-yl)-1-methyl-3-oxo-2,3-dihydro-1H-pyrazol-4-yl]-4-(difluoromethoxy)benzamide] | 2.6 | 0.02 |
| COc1cc(F)c(-c2c(NC(=O)c3ccc(OC(F)(F)F)cc3)c(=O)n(-c3cccc(F)c3)n2C)c(F)c1 [Example 2, N-[5-(2,6-difluoro-4-methoxyphenyl)-2-(3-fluorophenyl)-1-methyl-3-oxo-2,3-dihydro-1H-pyrazol-4-yl]-4-(trifluoromethoxy)benzamide] | 0.21 | 0.005 |
| COc1cc(F)c(-c2c(NC(=O)c3ccc(OC(F)F)cc3)c(=O)n(-c3cccc(C4CC4)n3)n2C)c(F)c1 [Example 45, N-[2-(6-cyclopropylpyridin-2-yl)-5-(2,6-difluoro-4-methoxyphenyl)-1-methyl-3-oxo-2,3-dihydro-1H-pyrazol-4-yl]-4-(difluoromethoxy)benzamide] | 2.8 | 0.006 |
| COc1cc(N2C[C@@H](C)O[C@@H](C)C2)nc(-n2c(=O)c(NC(=O)c3ccc(OC(F)F)cc3)c(-c3c(F)cc(OC)cc3F)n2C)c1 [Example 92, N-[5-(2,6-difluoro-4-methoxyphenyl)-2-{6-[(2R,6S)-2,6-dimethylmorpholin-4-yl]-4-methoxypyridin-2-yl}-1-methyl-3-oxo-2,3-dihydro-1H-pyrazol-4-yl]-4-(difluoromethoxy)benzamide] | 2.1 | 0.016 |
